pIC50: −log10 of the molar value.
How the values were obtained:
L02 = test: Cytotoxicity against human HL7702 cells assessed as reduction in cell viability incubated for 48 hrs by MTT assay; assay type: ADME, cell-based; settings: L02, 48 h
SGC-7901 = test: Cytotoxicity against human SGC-7901 cells assessed as reduction in cell viability incubated for 48 hrs by MTT assay; assay type: functional, cell-based; settings: SGC-7901, 48 h
HepG2 = test: Cytotoxicity against human HepG2 cells assessed as reduction in cell viability incubated for 48 hrs by MTT assay; assay type: functional, cell-based; settings: HepG2, 48 h
HeLa = test: Cytotoxicity against human HeLa cells assessed as reduction in cell viability incubated for 48 hrs by MTT assay; assay type: functional, cell-based
ECa-109 cell line = test: Cytotoxicity against human ECa-109 cells assessed as reduction in cell viability incubated for 48 hrs by MTT assay; assay type: functional, cell-based; settings: ECa-109, 48 h
[1] = Selectivity index, ratio of IC50 for cytotoxicity against human HL7702 cells to IC50 for cytotoxicity against human ECa-109 cells
[2] = Selectivity index, ratio of IC50 for cytotoxicity against human HL7702 cells to IC50 for cytotoxicity against human SGC-7901 cells

SMILES | pIC50 (L02) | pIC50 (SGC-7901) | pIC50 (HepG2) | pIC50 (HeLa) | pIC50 (ECa-109 cell line) | Ratio IC50 [1] | Ratio IC50 [2]
COc1cc(Cn2nnc3c2C(C)(C)[C@@H]2CC[C@]4(C)[C@H](CC[C@@H]5[C@H]6[C@H]7OC[C@@]6(CCC7(C)C)CC[C@]54C)[C@@]2(C)C3)cc(OC)c1OC | 5.18 | 4.97 | 4.92 | 5.04 | 5.20 |  | 
CC1(C)CC[C@]23CC[C@]4(C)[C@H](CC[C@@H]5[C@@]6(C)Cc7nnn(Cc8ccc(C(F)(F)F)cc8)c7C(C)(C)[C@@H]6CC[C@]54C)[C@H]2[C@H]1OC3 | 4.59 | 4.49 | 4.54 | 4.55 | 4.47 |  | 
COc1cccc(Cn2nnc3c2C(C)(C)[C@@H]2CC[C@]4(C)[C@H](CC[C@@H]5[C@H]6[C@H]7OC[C@@]6(CCC7(C)C)CC[C@]54C)[C@@]2(C)C3)c1 | 4.98 | 4.92 | 4.90 | 4.95 | 4.98 |  | 
CCCCCCCCn1nnc2c1C(C)(C)[C@@H]1CC[C@]3(C)[C@H](CC[C@@H]4[C@H]5[C@H]6OC[C@@]5(CCC6(C)C)CC[C@]43C)[C@@]1(C)C2 | < 4.10 | < 4.10 | < 4.10 | < 4.10 | < 4.10 |  | 
COc1cccc2c1C(=O)c1c(O)c3c(c(O)c1C2=O)C[C@@](O)(C(=O)CO)C[C@@H]3O[C@H]1C[C@H](N)[C@H](O)[C@H](C)O1 [DOXORUBICIN] | 6.03 | 5.82 |  | 5.97 | 5.69 | 0.46 | 0.61
CC1(C)CC[C@]23CC[C@]4(C)[C@H](CC[C@@H]5[C@@]6(C)Cc7nnn(Cc8ccc(Cl)cc8)c7C(C)(C)[C@@H]6CC[C@]54C)[C@H]2[C@H]1OC3 | 4.35 | 4.21 | 4.18 | 4.29 | 4.19 |  | 
COc1ccc(CCn2nnc3c2C(C)(C)[C@@H]2CC[C@]4(C)[C@H](CC[C@@H]5[C@H]6[C@H]7OC[C@@]6(CCC7(C)C)CC[C@]54C)[C@@]2(C)C3)cc1 | 4.41 | 4.34 | 4.44 | 4.37 | 4.29 |  | 
C[n+]1nn(Cc2ccc(F)cc2)c2c1C[C@]1(C)[C@H]3CC[C@@H]4[C@H]5[C@H]6OC[C@@]5(CCC6(C)C)CC[C@@]4(C)[C@]3(C)CC[C@H]1C2(C)C | 5.66 | 5.52 | 5.54 | 5.52 | 5.51 |  | 
Cc1ccc(Cn2n[n+](C)c3c2C(C)(C)[C@@H]2CC[C@]4(C)[C@H](CC[C@@H]5[C@H]6[C@H]7OC[C@@]6(CCC7(C)C)CC[C@]54C)[C@@]2(C)C3)cc1 | 5.83 | 5.67 | 5.64 | 5.66 | 5.58 |  | 
CCCCCCn1nnc2c1C(C)(C)[C@@H]1CC[C@]3(C)[C@H](CC[C@@H]4[C@H]5[C@H]6OC[C@@]5(CCC6(C)C)CC[C@]43C)[C@@]1(C)C2 | 4.29 | 4.39 | < 4.10 | < 4.10 | 4.43 |  | 
COC(Cn1n[n+](C)c2c1C(C)(C)[C@@H]1CC[C@]3(C)[C@H](CC[C@@H]4[C@H]5[C@H]6OC[C@@]5(CCC6(C)C)CC[C@]43C)[C@@]1(C)C2)OC | 5.39 | 5.18 | 5.20 | 5.27 | 5.26 |  | 
COc1ccc(Cn2nnc3c2C(C)(C)[C@@H]2CC[C@]4(C)[C@H](CC[C@@H]5[C@H]6[C@H]7OC[C@@]6(CCC7(C)C)CC[C@]54C)[C@@]2(C)C3)cc1 | 4.95 | 4.77 | 4.86 | 4.89 | 4.76 |  | 
C[n+]1nn(CCc2c[nH]c3ccccc23)c2c1C[C@]1(C)[C@H]3CC[C@@H]4[C@H]5[C@H]6OC[C@@]5(CCC6(C)C)CC[C@@]4(C)[C@]3(C)CC[C@H]1C2(C)C | 5.54 | 5.52 | 5.50 | 5.50 | 5.50 |  | 
C[n+]1nn(Cc2ccc(C(F)(F)F)cc2)c2c1C[C@]1(C)[C@H]3CC[C@@H]4[C@H]5[C@H]6OC[C@@]5(CCC6(C)C)CC[C@@]4(C)[C@]3(C)CC[C@H]1C2(C)C | 5.65 | 5.55 | 5.60 | 5.51 | 5.50 |  | 
COc1ccc(Cn2n[n+](C)c3c2C(C)(C)[C@@H]2CC[C@]4(C)[C@H](CC[C@@H]5[C@H]6[C@H]7OC[C@@]6(CCC7(C)C)CC[C@]54C)[C@@]2(C)C3)cc1 | 5.65 | 5.70 | 5.54 | 5.61 | 5.56 |  | 
COc1ccccc1CCn1nnc2c1C(C)(C)[C@@H]1CC[C@]3(C)[C@H](CC[C@@H]4[C@H]5[C@H]6OC[C@@]5(CCC6(C)C)CC[C@]43C)[C@@]1(C)C2 | 4.50 | 4.41 | 4.48 | 4.47 | 4.46 |  | 
CC1(C)CC[C@]23CC[C@]4(C)[C@H](CC[C@@H]5[C@@]6(C)Cc7nnn(Cc8ccccn8)c7C(C)(C)[C@@H]6CC[C@]54C)[C@H]2[C@H]1OC3 | < 4.10 | < 4.10 | < 4.10 | < 4.10 | < 4.10 |  | 
CC1(C)CC[C@]23CC[C@]4(C)[C@H](CC[C@@H]5[C@@]6(C)CC[C@H](O)C(C)(C)[C@@H]6CC[C@]54C)[C@H]2[C@H]1OC3 [ALLOBETULIN] | 4.37 | 4.20 | 4.25 | 4.34 | 4.32 |  | 

— ChEMBL document CHEMBL4706545, “Antiproliferative effect of mitochondria-targeting allobetulin 1,2,3-triazolium salt derivatives and their mechanism of inducing apoptosis of cancer cells” (Eur J Med Chem, 2020)
